Starred links: 1 amine or outer side, 2 acyl side, 3 side chain; linkers in the order of their positions; H or OH if unused. Positions of bridges follow the written chain, without caps; N, C: chain ends. Residues, ends and D or L forms follow the SMILES beside them. *: point of attachment. C18 diacid = O=C(O)CCCCCCCCCCCCCCCCC(=O)*; γGlu = O=C(O)[C@H](CCC(=O)[*:2])N[*:1]; AEEA = NCCOCCOCC(=O)O

This test addresses T1, human natriuretic peptide receptor 2 (hNPR2) (Homo sapiens, UniProt P20594).
T1 construct: expressed in transfected cells; host or cells: HEK293 (ATCC CRL-1573), clone 35, co-transfected with pGloSensor-42F
T1 sequence (P20594 23-1047): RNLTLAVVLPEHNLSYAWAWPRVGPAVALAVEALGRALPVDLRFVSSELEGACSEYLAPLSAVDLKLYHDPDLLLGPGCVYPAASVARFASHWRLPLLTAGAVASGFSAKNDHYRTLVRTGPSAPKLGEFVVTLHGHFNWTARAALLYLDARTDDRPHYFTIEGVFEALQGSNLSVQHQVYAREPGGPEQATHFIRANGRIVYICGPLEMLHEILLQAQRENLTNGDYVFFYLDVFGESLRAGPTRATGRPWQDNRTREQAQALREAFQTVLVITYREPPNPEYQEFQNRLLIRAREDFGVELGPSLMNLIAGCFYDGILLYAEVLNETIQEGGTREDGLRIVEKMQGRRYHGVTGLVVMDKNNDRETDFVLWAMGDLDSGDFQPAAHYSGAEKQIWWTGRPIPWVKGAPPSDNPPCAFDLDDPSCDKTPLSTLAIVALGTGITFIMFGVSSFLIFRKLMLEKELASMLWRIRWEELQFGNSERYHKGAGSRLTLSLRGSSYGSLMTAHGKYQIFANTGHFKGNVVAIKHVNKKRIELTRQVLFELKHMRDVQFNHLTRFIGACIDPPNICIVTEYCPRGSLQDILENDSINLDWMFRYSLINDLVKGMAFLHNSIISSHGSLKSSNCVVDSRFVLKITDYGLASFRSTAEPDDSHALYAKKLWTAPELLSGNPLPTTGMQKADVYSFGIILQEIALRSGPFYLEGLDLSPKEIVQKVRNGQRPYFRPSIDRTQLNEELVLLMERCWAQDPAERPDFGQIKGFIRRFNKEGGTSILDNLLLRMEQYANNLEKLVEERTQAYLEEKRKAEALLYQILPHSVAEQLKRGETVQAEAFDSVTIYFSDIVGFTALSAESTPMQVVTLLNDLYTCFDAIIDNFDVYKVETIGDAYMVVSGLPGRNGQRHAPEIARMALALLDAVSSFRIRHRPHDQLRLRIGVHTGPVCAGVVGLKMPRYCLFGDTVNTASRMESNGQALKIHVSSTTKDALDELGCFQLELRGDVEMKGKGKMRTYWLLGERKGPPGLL
As to the kind of experiment: In vitro hNPR2 activity assay (cGMP GloSensor reporter, HEK293). The class given is cell-based. The note with it: for hNPR2 0% HSA. [EC50% rel CNP]: potency relative to CNP22 (0065). Put shortly: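 Potency is the EC50 from a four-parameter logistic fit, also expressed relative to the in-plate CNP22 control (×100), with at least two replicates. Compounds (ten concentrations, […], HSA-free diluent with 1% OVA, 0.01% Tween20) were incubated 30 min at 37 °C on HEK293 cells co-expressing hNPR2 and a GloSensor cGMP luciferase. Luminescence detected with Bright-Glo.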

With `CC[C@H](C)[C@@H]1NC(=O)[C@H](CCCNC(=N)N)NC(=O)[C@H](CC(=O)O)NC(=O)[C@H](CC(C)C)NC(=O)[C@@H]2CCCN2C(=O)[C@H](CC(C)C)NC(=O)CNC(=O)[C@H](Cc2ccccc2)NC(=O)[C@@H](NC(=O)CNC(=O)[C@H](CCC(N)=O)NC(=O)[C@H](CO)NC(=O)[C@H](CO)NC(=O)CNC(=O)[C@H](CCCCN)NC(=O)[C@H](CCCCN)NC(=O)[C@H](CCC(N)=O)NC(=O)[C@H](C)NC(=O)CNC(=O)[C@@H]2CCCN2C(=O)[C@H](C)NC(=O)[C@H](CCC(N)=O)NC(=O)CNC(=O)COCCOCCNC(=O)COCCOCCNC(=O)CC[C@H](NC(=O)CCCCCCCCCCCCCCCCC(=O)O)C(=O)O)CSSC[C@@H](C(=O)O)NC(=O)CNC(=O)[C@H](CC(C)C)NC(=O)CNC(=O)[C@H](CO)NC(=O)[C@H](CC(C)C)NC(=O)[C@H](CO)NC(=O)CNC1=O` [compound 9384] ({C18 diacid-γGlu-AEEA-AEEA}-GQAPGAQKKGSSQGCFGLPLDRIGSLSGLGC-OH; disulfide 15-31; C-terminus assumed), the “hNPR2 0% HSA. [EC50% rel CNP]” value was found to be 53.7%. The same measure, in the same setting: with `CC[C@H](C)[C@@H]1NC(=O)[C@H](CCCNC(=N)N)NC(=O)[C@H](CC(=O)O)NC(=O)[C@H](CC(C)C)NC(=O)[C@@H]2CCCN2C(=O)[C@H](CC(C)C)NC(=O)CNC(=O)[C@H](Cc2ccccc2)NC(=O)[C@@H](NC(=O)CNC(=O)[C@H](CCC(N)=O)NC(=O)[C@H](CO)NC(=O)[C@H](CC(C)C)NC(=O)CNC(=O)[C@H](CCCCN)NC(=O)[C@H](CCCCN)NC(=O)[C@H](CCC(N)=O)NC(=O)[C@H](C)NC(=O)CNC(=O)[C@H](CCCCN)NC(=O)[C@H](Cc2ccc(O)cc2)NC(=O)[C@H](CCCCN)NC(=O)[C@H](CCCNC(=N)N)NC(=O)[C@H](C)NC(=O)COCCOCCNC(=O)COCCOCCNC(=O)COCCOCCNC(=O)COCCOCCNC(=O)CC[C@H](NC(=O)CC[C@H](NC(=O)CC[C@H](NC(=O)CC[C@H](NC(=O)CC[C@H](NC(=O)CCCCCCCCCCCCCCCCC(=O)O)C(=O)O)C(=O)O)C(=O)O)C(=O)O)C(=O)O)CSSC[C@@H](C(=O)O)NC(=O)CNC(=O)[C@H](CC(C)C)NC(=O)CNC(=O)[C@H](CO)NC(=O)[C@H](CC(C)C)NC(=O)[C@H](CO)NC(=O)CNC1=O` [compound 9407] ({C18 diacid-γGlu-γGlu-γGlu-γGlu-γGlu-AEEA-AEEA-AEEA-AEEA}-ARKYKGAQKKGLSQGCFGLPLDRIGSLSGLGC-OH; disulfide 16-32) the figure was 38.6%; with `CC[C@H](C)[C@@H]1NC(=O)[C@H](CCCNC(=N)N)NC(=O)[C@H](CC(=O)O)NC(=O)[C@H](CC(C)C)NC(=O)[C@@H]2CCCN2C(=O)[C@H](CC(C)C)NC(=O)CNC(=O)[C@H](Cc2ccccc2)NC(=O)[C@@H](NC(=O)CNC(=O)[C@H](CCC(N)=O)NC(=O)[C@H](CO)NC(=O)CNC(=O)CNC(=O)[C@H](CCCCN)NC(=O)[C@H](CCCCN)NC(=O)[C@H](CCC(N)=O)NC(=O)[C@H](C)NC(=O)CNC(=O)[C@H](CCCCN)NC(=O)[C@H](Cc2ccc(O)cc2)NC(=O)COCCOCCNC(=O)COCCOCCNC(=O)COCCOCCNC(=O)COCCOCCNC(=O)CC[C@H](NC(=O)CC[C@H](NC(=O)CCCCCCCCCCCCCCCCC(=O)O)C(=O)O)C(=O)O)CSSC[C@@H](C(=O)O)NC(=O)CNC(=O)[C@H](CC(C)C)NC(=O)CNC(=O)[C@H](CO)NC(=O)[C@H](CC(C)C)NC(=O)[C@H](CO)NC(=O)CNC1=O` [compound 9435] ({C18 diacid-γGlu-γGlu-AEEA-AEEA-AEEA-AEEA}-YKGAQKKGGSQGCFGLPLDRIGSLSGLGC-OH; disulfide 13-29; C-terminus assumed), 73.6%; with `CC[C@H](C)[C@@H]1NC(=O)[C@H](CCCNC(=N)N)NC(=O)[C@H](CC(=O)O)NC(=O)[C@H](CC(C)C)NC(=O)[C@@H]2CCCN2C(=O)[C@H](CC(C)C)NC(=O)CNC(=O)[C@H](Cc2ccccc2)NC(=O)[C@@H](NC(=O)CNC(=O)[C@H](CCC(N)=O)NC(=O)[C@H](CO)NC(=O)[C@H](CC(C)C)NC(=O)CNC(=O)[C@H](CCCCN)NC(=O)[C@H](CCCCN)NC(=O)[C@H](CCC(N)=O)NC(=O)[C@H](C)NC(=O)CNC(=O)[C@H](CCCCN)NC(=O)[C@H](Cc2ccc(O)cc2)NC(=O)COCCOCCNC(=O)COCCOCCNC(=O)COCCOCCNC(=O)COCCOCCNC(=O)CC[C@H](NC(=O)CC[C@H](NC(=O)CC[C@H](NC(=O)CCCCCCCCCCCCCCCCC(=O)O)C(=O)O)C(=O)O)C(=O)O)CSSC[C@@H](C(=O)O)NC(=O)CNC(=O)[C@H](CC(C)C)NC(=O)CNC(=O)[C@H](CO)NC(=O)[C@H](CC(C)C)NC(=O)[C@H](CO)NC(=O)CNC1=O` [compound 9480] ({C18 diacid-γGlu-γGlu-γGlu-AEEA-AEEA-AEEA-AEEA}-YKGAQKKGLSQGCFGLPLDRIGSLSGLGC-OH; disulfide 13-29), 45.2%. Still for that read-out and setting: with `CC[C@H](C)[C@@H]1NC(=O)[C@H](CCCNC(=N)N)NC(=O)[C@H](CC(=O)O)NC(=O)[C@H](CC(C)C)NC(=O)[C@@H]2CCCN2C(=O)[C@H](CC(C)C)NC(=O)CNC(=O)[C@H](Cc2ccccc2)NC(=O)[C@@H](NC(=O)CNC(=O)[C@H](CO)NC(=O)[C@H](CO)NC(=O)[C@H](CC(C)C)NC(=O)CNC(=O)[C@H](CCCCN)NC(=O)[C@H](CCCCN)NC(=O)[C@H](CCC(N)=O)NC(=O)[C@H](C)NC(=O)CNC(=O)[C@H](CCCCN)NC(=O)[C@H](Cc2ccc(O)cc2)NC(=O)[C@H](CCCCN)NC(=O)[C@H](CCCNC(=N)N)NC(=O)[C@H](C)NC(=O)[C@H](CCC(N)=O)NC(=O)[C@@H]2CCCN2C(=O)[C@H](Cc2c[nH]cn2)NC(=O)[C@H](CCC(=O)O)NC(=O)[C@H](CCC(N)=O)NC(=O)CC[C@H](NC(=O)CC[C@H](NC(=O)CC[C@H](NC(=O)CC[C@H](NC(=O)CC[C@H](NC(=O)CCCCCCCCCCCCCCCCC(=O)O)C(=O)O)C(=O)O)C(=O)O)C(=O)O)C(=O)O)CSSC[C@@H](C(=O)O)NC(=O)CNC(=O)[C@H](CC(C)C)NC(=O)CNC(=O)[C@H](CO)NC(=O)[C@H](CC(C)C)NC(=O)[C@H](CO)NC(=O)CNC1=O` [compound 9482] ({C18 diacid-γGlu-γGlu-γGlu-γGlu-γGlu}-QEHPQARKYKGAQKKGLSSGCFGLPLDRIGSLSGLGC-OH; disulfide 21-37) the figure was 39.4%.

For `CC[C@H](C)[C@@H]1NC(=O)[C@H](CCCNC(=N)N)NC(=O)[C@H](CCC(=O)O)NC(=O)[C@H](CC(C)C)NC(=O)[C@@H]2CCCN2C(=O)[C@H](CC(C)C)NC(=O)CNC(=O)[C@H](Cc2ccccc2)NC(=O)[C@@H](NC(=O)CNC(=O)[C@H](CO)NC(=O)[C@H](CO)NC(=O)[C@H](CC(C)C)NC(=O)CNC(=O)[C@H](CCCCN)NC(=O)[C@H](CCCCN)NC(=O)[C@H](CCC(N)=O)NC(=O)[C@H](C)NC(=O)CNC(=O)[C@H](CCCCN)NC(=O)[C@H](Cc2ccc(O)cc2)NC(=O)[C@H](CCCCN)NC(=O)[C@H](CCCNC(=N)N)NC(=O)[C@H](C)NC(=O)[C@H](CCC(N)=O)NC(=O)[C@@H]2CCCN2C(=O)[C@H](Cc2c[nH]cn2)NC(=O)[C@H](CCC(=O)O)NC(=O)[C@H](CCC(N)=O)NC(=O)CC[C@H](NC(=O)CC[C@H](NC(=O)CC[C@H](NC(=O)CC[C@H](NC(=O)CCCCCCCCCCCCCCCCC(=O)O)C(=O)O)C(=O)O)C(=O)O)C(=O)O)CSSC[C@@H](C(=O)O)NC(=O)CNC(=O)[C@H](CC(C)C)NC(=O)CNC(=O)[C@H](CO)NC(=O)[C@H](CC(C)C)NC(=O)[C@H](CO)NC(=O)CNC1=O` [compound 9483] ({C18 diacid-γGlu-γGlu-γGlu-γGlu}-QEHPQARKYKGAQKKGLSSGCFGLPLERIGSLSGLGC-OH; disulfide 21-37), the “hNPR2 0% HSA. [EC50% rel CNP]” value is reported as 10.2%. The molecule also yielded a concentration giving a half-maximal response (EC50) (0% HSA, HEK293-hNPR2/GloSensor cells) of 0.3 nM.

What is called EC50 is the midpoint of the concentration-response curve. A lower EC50 goes with a more potent agent.
